The results in this text go back to patent US6080731A, “Dinucleoside-5', 5'-pyrophosphates administered to treat HIV” (Biosearch Italia, S.p.A., priority 1994, dated 2000).

The test system of data set [1] is HIV. The data set is described as follows: Anti-HIV in vitro activity: inhibition of the HIV-induced cytopathic effect in MT-4 cells. It counts as cell-based. Particulars: Human immunodeficiency virus 1, MT4, read-out: 50% effective concentration (IC50). An excerpt: (§1) To confirm the anti-HIV activity of some dinucleoside-5',5'-P^1,P^2-pyrophosphates representative of this invention, invitro tests have been carried out on a HTLV-1 transformed cell line, MT-4, which is highly susceptible to and permissive for HIV infection. The inhibition of the HIV-induced cytopathic effect was used as the end point. The procedure of this test is essentially that described by R. Pauwels et al. "Rapid and automated tetrazolium-based calorimetric assay for the detection of anti-HIV compounds". Journal of Virological Methods, 20, (1988), 309-321.
(§2) Thymine-3'-azido-2',3'-dideoxy-D-riboside (AZT) was taken as control compound.

Data set [2] in a line: Concentration of di-AZT-5',5'-P^1,P^2 -pyrophosphate and its metabolites in loaded human red blood cells. It counts as in vitro ADME. Particulars: 37° C., autologous plasma; for Concentration into human red blood cells: 10% hematocrit, erythrocytes loaded with di-AZT-pyrophosphate. The protocol:
(§3) A two step procedure was used consisting of a first dialysis of the washed and packed erythrocytes (80% hematocrit) against 70 volumes of hemolysing buffer (5 mM Na2 HPO4 supplemented with 4 mM MgCl2, pH 7.2, 26 mOsm) for 35 minutes at 4° C. under gentle rotation. This step was followed by addition of 10-15 mM di-AZT-5',5'-P^1,P^2 -pyrcphosphate inside the dialysis bag and further dialysis for 15 minutes under the same conditions. Erythrocytes were then resealed by dialysing them for 40 minutes at 4° C. against phosphate-saline buffer, pH 7.4, supplemented with 10 mM glucose and adenosine, 310 mOsm. The loaded erythrocytes were then extensively washed with ice-cold aqueous NaCl (0.9% w/w) and incubated at 37° C. in autologous plasma at 10% hematocrit.
(§4) The concentration of the dinucleoside pyrophosphate and its metabolites in the plasma and red blood cells was determined at successive time intervals by using the following method.
At various times, 1 ml aliquots of the incubation mixture were withdrawn. After the separation of the erythrocytes from plasma, the two fractions were separately extracted.
100 Microliters of packed red blood cells (RBC) were added to 100 microliters of water, then 68 microliters of 3.7 M perchloric acid (PCA) were added under vigorous shaking. The sample was centrifuged and 140 microliters of the supernatant were neutralized with 30 microliters of 3 M potassium carbonate. The sample was then centrifuged to remove the formed precipitate.
(§5) 150 Microliters of the plasma fractions were treated with 50 microliters of 3.7 M PCA and 120 microliters of the supernatant were neutralized with 27 microliters of 3 M potassium carbonate and centrifuged. […] The solvent program was a linear gradient starting at 100% of buffer A (0.1 M KH2 PO4 with 5 mM tert-butylammonium hydroxide (TBA), pH 4.9) and increasing up to 100% buffer B (0.1 M KH2 PO4 with 5 mM TBA, in 40% (v/v) methanol in water, pH 4.9) in 30 minutes; 100% buffer B was maintained up to 50 minutes. The flow rate was 0.4 ml/min and the eluted compounds were monitored with a spectrophotometric detector set at 265 nm.

Data set [3] in a line: 50% cytotoxic concentration in MT-4 cells. It counts as cell-based. Particulars: human.
From the text: as §1, §2

Data set [4] can be described thus: Concentration of di-AZT-5',5'-P^1,P^2 -pyrophosphate and its metabolites in human plasma incubated with loaded erythrocytes. The settings on record: 37° C., autologous plasma, 10% hematocrit, released from loaded erythrocytes. It counts as in vitro ADME. Here is the method:
as §3, §4
At various times, 1 ml aliquots of the incubation mixture were withdrawn. After the separation of the erythrocytes from plasma, the two fractions were separately extracted. […]
as §5

Data set [5] can be described thus: De-phosphorylation rate of encapsulated pro-drug. It counts as in vitro ADME. Particulars: pro-drug for encapsulation into erythrocytes.

Some results are limits rather than exact numbers.

For the compound `Cc1cn([C@H]2C[C@H](N=[N+]=[N-])[C@@H](CO)O2)c(=O)[nH]c1=O` [AZT, thymine-3'-azido-2',3'-dideoxy-D-riboside, reference compound], the IC50 in data set [1] was determined as 0.028 µM. Also, the “Concentration into human red blood cells” value in data set [2] (6 h) was 600 µM; in data set [2] (24 h) it was 100 µM. The midpoint of cytotoxicity in data set [3], the CC50, lay at 70 µM. In addition, the “Concentration in human plasma” value in data set [4] (0 h) was 4.6 µM; in data set [4] (2 h), 14.42 µM; in data set [4] (6 h) it was 62.43 µM; in data set [4] (24 h), 355.78 µM.

With `Cc1cn([C@H]2C[C@H](N=[N+]=[N-])[C@@H](COP(=O)(O)O)O2)c(=O)[nH]c1=O` [AZT-monophosphate, thymine-3'-azido-2',3'-dideoxy-D-riboside-5'-monophosphate], the “Concentration into human red blood cells” value in data set [2] (0 h) was determined as 40 µM; in data set [2] (2 h) it was 90 µM; in data set [2] (6 h), 650 µM; in data set [2] (24 h) it was 930 µM. The “Concentration in human plasma” value in data set [4] (0 h) is 21.94 µM; in data set [4] (2 h), 28.21 µM; in data set [4] (6 h), 24.68 µM; in data set [4] (24 h), 67.11 µM.

Turning to `Cc1cn([C@H]2C[C@H](N=[N+]=[N-])[C@@H](COP(=O)(O)OP(=O)(O)OC[C@H]3O[C@@H](n4cc(C)c(=O)[nH]c4=O)C[C@@H]3N=[N+]=[N-])O2)c(=O)[nH]c1=O` [Compound 1, di-(thymine-3'-azido-2',3'-dideoxy-D-riboside)-5',5'-P^1,P^2-pyrophosphate], the IC50 in data set [1] is 0.031 µM. Besides, the “Concentration into human red blood cells” value in data set [2] (0 h) was 3900 µM; in data set [2] (2 h), 4100 µM; in data set [2] (6 h) it was 2900 µM; in data set [2] (24 h), 1800 µM. Moreover, in data set [2] (human red blood cells), the “Release from the erythrocytes” value is “released from the erythrocytes at a very low rate”. Also, the CC50 in data set [3] is greater than 100 µM. Besides, the “Concentration in human plasma” value was 4.49 µM in data set [4] (0 h), 3.75 µM in data set [4] (2 h), 5.27 µM in data set [4] (6 h) and 5.34 µM in data set [4] (24 h).

In the case of `O=c1[nH]c(=O)n([C@H]2C[C@H](O)[C@@H](COP(=O)(O)OP(=O)(O)OC[C@H]3O[C@@H](n4cc(F)c(=O)[nH]c4=O)C[C@@H]3O)O2)cc1F` [Example 6, di-(5-fluorouracil-2'-deoxy-D-riboside)-5',5'-P^1,P^2-pyrophosphate], the “De-phosphorylation rate with respect to the respective monophosphate” value in data set [5] was “lower de-phosphorylation rate with respect to the respective monophosphate”.
